Here are results for five compounds from paper PMC11843613, “Further Optimization of the mGlu1 PAM VU6024578/BI02982816: Discovery and Characterization of VU6033685” (ACS Chemical Neuroscience, 2025).

Structures are written as SMILES. Values after ≈ are worked out from the molar mass of the structure shown. Values joined by “and” are separate entries in the source; they are usually repeats but may differ in a detail not shown here. Equal values may be shown once. Read-outs that look alike come from different tables or passages of the source.

The target of series [1] is T1, human mGlu1 (Homo sapiens, UniProt Q13255).
T1 construct: expressed in transfected cells; pcDNA5/TO)
Description: mGlu1 PAM calcium mobilization assay (human). As to conditions: for fold increase in mGlu1 PAM potency over 5: human mGlu1 EC50 ratio versus 5. The series is classed as cell-based. The source says:
Molecular Pharmacology. Tetracycline-tested fetal bovine serum (FBS) was purchased from Atlanta Biologicals (Lawrenceville, GA), and all other tissue culture reagents and Fluo-4-acetoxymethylester (Fluo-4-AM) were purchased from Life Technologies (Carlsbad, CA).
Tetracycline hydrochloride (Sigma), L-glutamic acid (Tocris, Minneapolis, MN), and (S)-3,5-dihydroxyphenylglycine (DHPG) (Abcam, Cambridge, MA). EZ-Link Sulfo-NHS-SS-Biotin and NeutrAvidin agarose beads (Pierce Biotechnology, Rockford, IL).
Cell Culture and Mutagenesis. Tetracycline-inducible human mGlu 1 WT-T-RExTM-293 cells (Wu et al, Science 2014) were cultured at 37 °C in Dulbecco’s Modified Eagle Medium (DMEM) growth medium containing 10% Tet-tested FBS, 2 mM L-glutamine, 20 mM HEPES, 0.1 mM non-essential amino acids, 1 mM sodium pyruvate, antibiotic/antimycotic, 100 µg/mL hygromycin and 5 µg/mL blasticidin in the presence of 5% CO 2. […]
Calcium Mobilization Assay. To determine the potency of mGlu 1 PAMs in calcium assays, Ca flux was measured as previously described in ACS Chem. Bio. 2014, 9, 2334-2346. Briefly, the day before the assay, human mGlu1 WT-T-RExTM-293 cells were plated in black-walled, clear-bottomed, poly-D-lysine coated 96-well plates at 80,000 cells/100 µL assay medium (DMEM supplemented with 10% dialyzed FBS, 20 mM HEPES, and 1 mM sodium pyruvate) containing 50 ng/mL of tetracycline to induce mGlu1 expression. The next day, media was removed and the cells were incubated with 50 µL of 1.15 µM Fluo-4 AM dye solution prepared in assay buffer (buffer (Hank’s balanced salt solution, 20 mM HEPES, and 2.5 mM probenecid) for 45 min at 37 °C, the dye was removed and replaced with 45 µL of assay buffer. Then, calcium flux was measured using Flexstation II (Molecular Devices, Sunnyvale, CA). Compounds serially diluted […]
at half log concentrations in DMSO were further diluted in assay buffer. The compounds or DMSO vehicle were added to cells and incubated for 2.5 min and an EC20 concentration of glutamate was added and incubated for 1 min. An ECmax concentration of glutamate was also added to cells that were incubated with DMSO vehicle to accurately calculate the EC20 calcium response. Data were normalized by subtracting the basal florescent peak before EC20 agonist addition from the maximal peak elicited by EC20 agonist and PAMs. Using GraphPad Prism 5.0, the concentration response curves were generated and the potencies of the mGlu1 PAMs were determined. […]
(A change in cytosolic calcium serves as a functional read-out for many receptors and channels.)

The nature of series [2]: Plasma protein binding, equilibrium dialysis (human). To be noted: pH 7.4, human plasma, read-out: fu plasma (h). The series is classed as in vitro ADME. The method, then: (§1) page 13: at half log concentrations in DMSO were further diluted in assay buffer. The compounds or DMSO vehicle were added to cells and incubated for 2.5 min and an EC20 concentration of glutamate was added and incubated for 1 min. An ECmax concentration of glutamate was also added to cells that were incubated with DMSO vehicle to accurately calculate the EC20 calcium response. Data were normalized by subtracting the basal florescent peak before EC20 agonist addition from the maximal peak elicited by EC20 agonist and PAMs. Using GraphPad Prism 5.0, the concentration response curves were generated and the potencies of the mGlu1 PAMs were determined. DMPK Methods Plasma protein binding: The protein binding of each compound was determined in plasma via equilibrium dialysis employing RED Plates (ThermoFisher Scientific, Rochester, NY). Plasma was added to the 96 well plate containing test compound and mixed thoroughly for a final concentration of 5 µM. Subsequently, an aliquot of the plasma-compound mixture was transferred to the cis chamber (red) of the RED plate, with an phosphate buffer (25 mM, pH 7.4) in the trans chamber. The RED plate was sealed and incubated for 4 hours at 37°C with shaking. At completion, aliquots from each chamber were diluted 1:1 with either plasma (cis) or buffer (trans) and transferred to a new 96 well plate, at which time ice-cold acetonitrile containing internal standard (50 ng/mL carbamazepine) (2 volumes) was added to extract the matrices. The plate was centrifuged (3000 rcf, 10 min) and supernatants transferred and diluted 1:1 (supernatant: water) into a new 96 well plate, which was then sealed in preparation for LC/MS/MS analysis. Each compound was assayed in triplicate within the same 96-well plate. Fraction unbound was determined using the following equation F = Concbuffer u Conc plasma Intrinsic clearance: Human or rat hepatic microsomes (0.5 mg/mL) and 1 µM test compound were incubated in 100 mM potassium phosphate pH 7.4 buffer with 3 mM MgCl2 at 37°C with constant shaking. After a 5 min preincubation, the reaction was initiated by addition of NADPH (1 mM). At selected time intervals (0, 3, 7, 15, 25, and 45 min), aliquots were taken and subsequently placed into a 96-well plate containing cold acetonitrile with internal standard (50 ng/mL carbamazepine). Plates were then centrifuged at 3000 rcf (4° C) for 10 min, and the supernatant was transferred to a separate 96-well plate and diluted 1:1 with water for LC/MS/MS analysis. The in vitro half-life (T 1/2, min, Eq. 1), intrinsic clearance (CLint, mL/min/kg, Eq. 2) and subsequent predicted hepatic clearance (CLhep, mL/min/kg, Eq. 3) was determined S13

A short description of series [3]: Plasma protein binding, equilibrium dialysis (rat). The series is classed as in vitro ADME. To be noted: pH 7.4, rat plasma, read-out: fu plasma (r). On the procedure: as §1
For series [4], the target named is T2, P-gp (Homo sapiens, UniProt P08183).
T2 construct: expressed in transfected cells; host or cells: MDCK-MDR1
Description: MDCK-MDR1 efflux and permeability. The series is classed as in vitro ADME. As to conditions: for Papp / efflux ratio: dog, MDCK-MDR1; for efflux ratio: read-out: P-gp, MDCK-MDR1 ER.

The target in series [5] is h mGlu5 (Homo sapiens, UniProt P41594). The experiment in a line: mGlu5 PAM functional assay. The series is classed as cell-based.
Series [6] in a line: Plasma protein binding (c). The class given is in vitro ADME, c (presumably cynomolgus). As to conditions: cynomolgus monkey, pH 7.4, read-out: fu plasma (c). The method, then:
page 13: at half log concentrations in DMSO were further diluted in assay buffer. The compounds or DMSO vehicle were added to cells and incubated for 2.5 min and an EC20 concentration of glutamate was added and incubated for 1 min. An ECmax concentration of glutamate was also added to cells that were incubated with DMSO vehicle to accurately calculate the EC20 calcium response. Data were normalized by subtracting the basal florescent peak before EC20 agonist addition from the maximal peak elicited by EC20 agonist and PAMs. Using GraphPad Prism 5.0, the concentration response curves were generated and the potencies of the mGlu1 PAMs were determined. DMPK Methods Plasma protein binding: The protein binding of each compound was determined in plasma via equilibrium dialysis employing RED Plates (ThermoFisher Scientific, Rochester, NY). Plasma was added to the 96 well plate containing test compound and mixed thoroughly for a final concentration of 5 µM. Subsequently, an aliquot of the plasma-compound mixture was transferred to the cis chamber (red) of the RED plate, with an phosphate buffer (25 mM, pH 7.4) in the trans chamber. The RED plate was sealed and incubated for 4 hours at 37°C with shaking. […] The in vitro half-life (T 1/2, min, Eq. 1), intrinsic clearance (CLint, mL/min/kg, Eq. 2) and subsequent predicted hepatic clearance (CLhep, mL/min/kg, Eq. 3) was determined S13

Series [7] in a line: Solubility in FASSGF and FASSIF. The class given is physicochemical.

T2 sequence (P08183 whole entry): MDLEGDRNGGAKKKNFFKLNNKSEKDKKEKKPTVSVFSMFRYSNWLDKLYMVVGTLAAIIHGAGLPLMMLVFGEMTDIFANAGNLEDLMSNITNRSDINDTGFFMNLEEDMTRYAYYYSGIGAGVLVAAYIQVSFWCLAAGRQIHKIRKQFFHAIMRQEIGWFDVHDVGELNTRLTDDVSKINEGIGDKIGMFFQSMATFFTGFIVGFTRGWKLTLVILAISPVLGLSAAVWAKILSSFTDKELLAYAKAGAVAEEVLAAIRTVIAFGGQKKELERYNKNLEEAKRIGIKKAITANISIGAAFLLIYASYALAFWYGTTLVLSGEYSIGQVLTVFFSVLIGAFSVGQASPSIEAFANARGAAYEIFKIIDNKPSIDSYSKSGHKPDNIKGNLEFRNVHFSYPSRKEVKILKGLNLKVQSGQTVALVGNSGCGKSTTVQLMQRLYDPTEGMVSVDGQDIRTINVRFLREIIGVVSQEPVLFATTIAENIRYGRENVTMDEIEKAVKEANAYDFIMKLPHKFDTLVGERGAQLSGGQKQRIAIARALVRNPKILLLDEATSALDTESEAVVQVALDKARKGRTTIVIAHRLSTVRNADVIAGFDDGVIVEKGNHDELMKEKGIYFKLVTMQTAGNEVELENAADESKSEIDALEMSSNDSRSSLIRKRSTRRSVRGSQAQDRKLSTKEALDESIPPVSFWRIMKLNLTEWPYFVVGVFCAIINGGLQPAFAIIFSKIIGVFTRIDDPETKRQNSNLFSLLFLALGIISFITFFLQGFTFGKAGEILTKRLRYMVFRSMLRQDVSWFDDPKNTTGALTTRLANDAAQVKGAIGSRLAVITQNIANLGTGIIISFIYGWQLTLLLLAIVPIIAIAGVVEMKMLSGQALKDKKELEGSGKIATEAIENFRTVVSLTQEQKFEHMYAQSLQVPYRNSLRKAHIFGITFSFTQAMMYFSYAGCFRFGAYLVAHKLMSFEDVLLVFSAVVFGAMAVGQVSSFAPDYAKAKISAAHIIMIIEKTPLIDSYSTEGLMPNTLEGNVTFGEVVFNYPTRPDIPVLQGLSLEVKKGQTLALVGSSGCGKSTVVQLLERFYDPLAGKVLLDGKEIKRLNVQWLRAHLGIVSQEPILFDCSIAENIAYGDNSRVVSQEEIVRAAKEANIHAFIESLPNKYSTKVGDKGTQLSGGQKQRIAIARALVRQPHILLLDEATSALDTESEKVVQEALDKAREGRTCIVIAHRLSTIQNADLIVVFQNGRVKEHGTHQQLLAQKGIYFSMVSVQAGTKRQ
T1 sequence (Q13255 19-1194): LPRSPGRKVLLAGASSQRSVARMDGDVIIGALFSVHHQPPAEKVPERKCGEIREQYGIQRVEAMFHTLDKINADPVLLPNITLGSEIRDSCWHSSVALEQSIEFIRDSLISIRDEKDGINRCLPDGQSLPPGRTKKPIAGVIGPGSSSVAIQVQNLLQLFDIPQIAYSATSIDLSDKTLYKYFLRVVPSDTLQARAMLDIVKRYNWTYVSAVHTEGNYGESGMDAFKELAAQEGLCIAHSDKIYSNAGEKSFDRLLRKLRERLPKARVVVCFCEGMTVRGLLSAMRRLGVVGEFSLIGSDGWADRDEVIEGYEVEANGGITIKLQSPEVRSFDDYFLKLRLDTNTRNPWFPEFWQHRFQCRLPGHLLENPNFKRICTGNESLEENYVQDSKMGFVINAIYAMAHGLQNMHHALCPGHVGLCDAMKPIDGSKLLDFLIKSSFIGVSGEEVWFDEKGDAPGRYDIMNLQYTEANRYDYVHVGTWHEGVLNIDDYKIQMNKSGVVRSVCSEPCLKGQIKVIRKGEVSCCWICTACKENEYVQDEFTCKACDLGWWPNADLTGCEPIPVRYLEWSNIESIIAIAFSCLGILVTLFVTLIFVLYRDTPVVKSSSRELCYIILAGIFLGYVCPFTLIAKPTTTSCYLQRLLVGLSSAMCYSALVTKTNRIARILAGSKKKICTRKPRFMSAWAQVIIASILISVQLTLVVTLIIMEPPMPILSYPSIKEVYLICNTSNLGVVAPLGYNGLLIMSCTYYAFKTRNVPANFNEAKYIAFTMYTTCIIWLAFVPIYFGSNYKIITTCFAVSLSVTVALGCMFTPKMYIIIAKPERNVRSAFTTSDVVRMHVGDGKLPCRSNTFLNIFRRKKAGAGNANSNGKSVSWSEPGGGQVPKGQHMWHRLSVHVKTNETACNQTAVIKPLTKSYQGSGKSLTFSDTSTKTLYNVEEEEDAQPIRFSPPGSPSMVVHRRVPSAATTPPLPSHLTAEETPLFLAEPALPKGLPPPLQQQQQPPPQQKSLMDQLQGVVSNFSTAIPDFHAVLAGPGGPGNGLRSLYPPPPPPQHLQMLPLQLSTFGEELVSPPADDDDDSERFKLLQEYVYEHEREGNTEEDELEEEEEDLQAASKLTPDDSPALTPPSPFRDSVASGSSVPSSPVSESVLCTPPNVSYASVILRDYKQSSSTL
Sequence of h mGlu5 (P41594 21-1212): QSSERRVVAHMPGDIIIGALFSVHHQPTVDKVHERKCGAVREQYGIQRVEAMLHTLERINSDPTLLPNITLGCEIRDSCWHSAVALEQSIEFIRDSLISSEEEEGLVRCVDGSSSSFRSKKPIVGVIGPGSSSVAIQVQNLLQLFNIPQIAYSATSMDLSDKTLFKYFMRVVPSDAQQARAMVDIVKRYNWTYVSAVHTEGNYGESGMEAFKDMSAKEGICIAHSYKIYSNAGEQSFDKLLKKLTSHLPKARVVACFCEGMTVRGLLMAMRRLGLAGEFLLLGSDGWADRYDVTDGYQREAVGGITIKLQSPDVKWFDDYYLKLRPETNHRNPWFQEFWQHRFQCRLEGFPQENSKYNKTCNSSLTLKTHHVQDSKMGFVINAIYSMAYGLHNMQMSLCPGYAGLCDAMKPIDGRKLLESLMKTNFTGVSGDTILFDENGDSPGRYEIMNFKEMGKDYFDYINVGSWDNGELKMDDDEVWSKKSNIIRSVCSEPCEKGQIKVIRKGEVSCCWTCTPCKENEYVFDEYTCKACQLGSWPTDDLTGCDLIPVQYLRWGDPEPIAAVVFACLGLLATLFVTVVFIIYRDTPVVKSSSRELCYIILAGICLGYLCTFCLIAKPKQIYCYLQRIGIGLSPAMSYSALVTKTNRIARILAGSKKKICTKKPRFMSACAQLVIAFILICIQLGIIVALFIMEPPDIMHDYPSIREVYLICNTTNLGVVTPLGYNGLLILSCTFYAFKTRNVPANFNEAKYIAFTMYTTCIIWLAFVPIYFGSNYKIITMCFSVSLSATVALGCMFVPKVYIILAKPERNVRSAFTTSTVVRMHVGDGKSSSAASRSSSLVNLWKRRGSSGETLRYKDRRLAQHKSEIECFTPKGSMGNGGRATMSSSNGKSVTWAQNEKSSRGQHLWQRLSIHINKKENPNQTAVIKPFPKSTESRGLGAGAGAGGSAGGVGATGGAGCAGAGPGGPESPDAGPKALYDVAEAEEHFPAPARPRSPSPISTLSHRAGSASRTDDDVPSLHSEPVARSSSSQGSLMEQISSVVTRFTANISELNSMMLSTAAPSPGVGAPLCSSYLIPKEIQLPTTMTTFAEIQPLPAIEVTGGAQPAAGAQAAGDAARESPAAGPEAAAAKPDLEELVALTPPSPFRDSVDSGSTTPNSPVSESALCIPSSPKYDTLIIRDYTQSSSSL

What is called EC50 is the concentration giving half of the maximal effect. `Cn1cc(-c2cc(CNC(=O)c3cc(-c4ccco4)ccc3Cl)n(C)n2)cn1` [compound 4]: in series [1], the concentration giving a half-maximal response (EC50) was 0.028 µM. Moreover, the “human mGlu1 Glu Max” value in series [1] was determined as 72%. For the same compound, the results for the fraction unbound at 4 h, 5 µM in series [2] and in series [3] were 0.063 and 0.04, respectively.

Regarding `Cn1nc(-c2ccnn2C)cc1CNC(=O)c1cc(-n2cccn2)ccc1Cl` [compound 5], in series [1], the EC50 was 0.527 µM and 0.551 µM. For the same compound, in series [1], the “human mGlu1 Glu Max” value came out at 76%. Further, the fraction unbound at 4 h, 5 µM worked out at 0.143 in series [2] and 0.095 in series [3].

What is called Papp is a coefficient for how fast a substance crosses the barrier. Lower therefore signals slow passage. For the compound `Cc1nc2ccccc2cc1CNC(=O)c1cc(-n2cccn2)ccc1Cl` [compound 6], in series [1], the 50% effective concentration (EC50) turned out to be 0.032 µM and the “human mGlu1 Glu Max” value stood at 56%. In addition, in series [2], the fraction unbound at 4 h, 5 µM is 0.037. Moreover, the fraction unbound at 4 h, 5 µM in series [3] was determined as 0.054. Also, in series [4], the apparent permeability coefficient (Papp) stood at 39 ×10⁻⁶ cm/s and the efflux ratio amounted to 0.5.

Consider `Cc1nc2c(F)cccc2cc1CNC(=O)c1cc(-n2cccn2)ccc1Cl` [compound 7], for which, in series [1], the EC50 came out at 0.017 µM, the “human mGlu1 Glu Max” value came out at 56% and the “fold increase in mGlu1 PAM potency over 5” value is listed as around 31 fold. Further, the fraction unbound at 4 h, 5 µM in series [2] is 0.053. Moreover, in series [3], the fraction unbound at 4 h, 5 µM came to 0.016.

By solubility is commonly meant the dissolved amount per volume that the medium holds. As for `Cc1nc(C2CC2)ccc1CNC(=O)c1cc(-n2cccn2)ccc1Cl` [compound 8], the concentration for a half-maximal effect (EC50) in series [1] stood at 0.039 µM; in series [5] (Table 1, unit inferred), 3.76 µM. Further, the “human mGlu1 Glu Max” value in series [1] amounted to 65%. In series [1], the “fold increase in mGlu1 PAM potency over 5” value is listed as around 14 fold. Also, the “mGlu5 Glu Max” value in series [5] came out at 72%. Further, the fraction unbound at 4 h, 5 µM stood at 0.063 in series [2], 0.097 in series [3] and 0.46 in series [6]. In addition, in series [4], the “P-gp, MDCK-MDR1 ER” value worked out at 0.93. This compound also gave an apparent permeability coefficient (Papp) in series [4] of 42 ×10⁻⁶ cm/s. In series [4], the efflux ratio came out at 0.93. The solubility stood at 572 µg/mL (≈ 1560 µM) in series [7] (FASSGF, fassgf or other biorelevant, read-out: Solubility FASSGF) and 23.6 µg/mL (≈ 64.3 µM) in series [7] (FASSIF, read-out: Solubility FASSIF).
